Data as given in ChEMBL document CHEMBL2346512, “Inhibitory effect of 4,4'-dihydroxy-α-truxillic acid derivatives on NO production in lipopolysaccharide-induced RAW 264.7 macrophages and exploration of structure-activity relationships” (Bioorg Med Chem Lett, 2013).

Legend:
RAW264.7 [1] = assay: Inhibition of LPS-induced NO production in mouse RAW264.7 cells at 25 uM pretreated for 20 mins before LPS challenge measured after 18 hrs post LPS challenge by spectrophotometry; type: functional
[2] = Cytotoxicity against mouse RAW264.7 cells assessed as cell viability at 25 uM after 18 hrs by CCK-8 assay; type: cell-based; details: read-out: Activity
RAW264.7 [3] = assay: Cytotoxicity against mouse RAW264.7 cells assessed as cell viability after 18 hrs by CCK-8 assay; type: cell-based; details: RAW264.7, 18 h
RAW264.7 [4] = assay: Inhibition of LPS-induced NO production in mouse RAW264.7 cells pretreated for 20 mins before LPS challenge measured after 18 hrs post LPS challenge by spectrophotometry; type: functional, cell-based
RAW264.7 [5] = assay: Inhibition of LPS-induced NO production in mouse RAW264.7 cells at 50 uM pretreated for 20 mins before LPS challenge measured after 18 hrs post LPS challenge by spectrophotometry; type: functional
RAW264.7 [6] = assay: Inhibition of LPS-induced NO production in mouse RAW264.7 cells at 12.5 uM pretreated for 20 mins before LPS challenge measured after 18 hrs post LPS challenge by spectrophotometry; type: functional
RAW264.7 [7] = assay: Inhibition of LPS-induced NO production in mouse RAW264.7 cells at 100 uM pretreated for 20 mins before LPS challenge measured after 18 hrs post LPS challenge by spectrophotometry; type: functional
RAW264.7 [8] = assay: Cytotoxicity against mouse RAW264.7 cells assessed as cell viability up to 50 uM after 18 hrs by CCK-8 assay; type: cell-based; details: raw264.7, 18 h

Structure (SMILES) | inhibition at 25 µM (RAW264.7 [1]) | viability at 18 h, 25 µM [2] | other results
O=C(OC1CCOCC1)[C@H]1[C@H](c2ccc(O)cc2)[C@H](C(=O)OC2CCOCC2)[C@H]1c1ccc(O)cc1 | 18% | 100% | –
CCOCCOCCOCCOC(=O)[C@H]1[C@H](c2ccc(O)cc2)[C@H](C(=O)OCCOCCOCCOCC)[C@H]1c1ccc(O)cc1 | 15.7% | 100% | –
C#CCOCCOC(=O)[C@H]1[C@H](c2ccc(O)cc2)[C@H](C(=O)OCCOCC#C)[C@H]1c1ccc(O)cc1 | 13.5% | 100% | –
O=C(OC1CCCC1)[C@H]1[C@H](c2ccc(O)cc2)[C@H](C(=O)OC2CCCC2)[C@H]1c1ccc(O)cc1 | 62.1% | 58% | IC50 (RAW264.7 [3]): 31.2 µM; IC50 (RAW264.7 [4]): 21.1 µM
O=C(OCC1CCCCC1)[C@H]1[C@H](c2ccc(O)cc2)[C@H](C(=O)OCC2CCCCC2)[C@H]1c1ccc(O)cc1 | 46.9% | 37% | IC50 (RAW264.7 [3]): 17.9 µM; IC50 (RAW264.7 [4]): 29.1 µM
CC(C)(C)C1CCC(OC(=O)[C@H]2[C@H](c3ccc(O)cc3)[C@H](C(=O)OC3CCC(C(C)(C)C)CC3)[C@H]2c2ccc(O)cc2)CC1 (stereo not given in full) | 0% | 100% | –
N=C(N)NN [PIMAGEDINE] | 56% | – | inhibition at 50 µM (RAW264.7 [5]): 71%; IC50 (RAW264.7 [4]): 18.7 µM
CSCCOC(=O)[C@H]1[C@H](c2ccc(O)cc2)[C@H](C(=O)OCCSC)[C@H]1c1ccc(O)cc1 | 24.4% | 100% | –
O=C(OCC1CCCO1)[C@H]1[C@H](c2ccc(O)cc2)[C@H](C(=O)OCC2CCCO2)[C@H]1c1ccc(O)cc1 (stereo not given in full) | 10.2% | 96% | –
COCCOCCOCCOC(=O)[C@H]1[C@H](c2ccc(O)cc2)[C@H](C(=O)OCCOCCOCCOC)[C@H]1c1ccc(O)cc1 | 11.9% | 100% | –
C=C(C)COC(=O)[C@H]1[C@H](c2ccc(O)cc2)[C@H](C(=O)OCC(=C)C)[C@H]1c1ccc(O)cc1 | 27.9% | 100% | –
O=C(OCC1CC1)[C@H]1[C@H](c2ccc(O)cc2)[C@H](C(=O)OCC2CC2)[C@H]1c1ccc(O)cc1 | 33.9% | 95% | –
O=C(OCC12CC3CC(CC(C3)C1)C2)[C@H]1[C@H](c2ccc(O)cc2)[C@H](C(=O)OCC23CC4CC(CC(C4)C2)C3)[C@H]1c1ccc(O)cc1 | 27.8% | 98% | –
CC(C)[C@H]1CC[C@H](C)C[C@@H]1OC(=O)[C@H]1[C@H](c2ccc(O)cc2)[C@H](C(=O)O[C@H]2C[C@@H](C)CC[C@@H]2C(C)C)[C@H]1c1ccc(O)cc1 | 17.4% | 90% | –
C#CCCOC(=O)[C@H]1[C@H](c2ccc(O)cc2)[C@H](C(=O)OCCC#C)[C@H]1c1ccc(O)cc1 | 28.3% | 100% | –
O=C(OCC(F)(F)F)[C@H]1[C@H](c2ccc(O)cc2)[C@H](C(=O)OCC(F)(F)F)[C@H]1c1ccc(O)cc1 | 65.3% | 78% | IC50 (RAW264.7 [3]): 38.5 µM; IC50 (RAW264.7 [4]): 20.8 µM
O=C(OC(C(F)(F)F)C(F)(F)F)[C@H]1[C@H](c2ccc(O)cc2)[C@H](C(=O)OC(C(F)(F)F)C(F)(F)F)[C@H]1c1ccc(O)cc1 | 55% | 32.6% | IC50 (RAW264.7 [3]): 17.6 µM; IC50 (RAW264.7 [4]): 22.6 µM
O=C(OCCC1CCCCC1)[C@H]1[C@H](c2ccc(O)cc2)[C@H](C(=O)OCCC2CCCCC2)[C@H]1c1ccc(O)cc1 | 19.1% | 100% | –
CCCCOCCOC(=O)[C@H]1[C@H](c2ccc(O)cc2)[C@H](C(=O)OCCOCCCC)[C@H]1c1ccc(O)cc1 | 45.8% | 95% | IC50 (RAW264.7 [3]): 44.5 µM; IC50 (RAW264.7 [4]): 32.6 µM

Structure (SMILES) | inhibition at 25 µM (RAW264.7 [1]) | viability at 18 h, 25 µM [2] | other results
CC(C)=CCC/C(C)=C\COC(=O)[C@H]1[C@H](c2ccc(O)cc2)[C@H](C(=O)OC/C=C(/C)CCC=C(C)C)[C@H]1c1ccc(O)cc1 | 42.6% | 56% | –
CC(C)OCCOC(=O)[C@H]1[C@H](c2ccc(O)cc2)[C@H](C(=O)OCCOC(C)C)[C@H]1c1ccc(O)cc1 | 22% | 100% | –
O=C(O)/C=C/c1ccc(O)cc1 [COUMARIC ACID] | 0% | – | inhibition at 50 µM (RAW264.7 [5]): 6.5%; inhibition at 12.5 µM (RAW264.7 [6]): 0%; inhibition at 100 µM (RAW264.7 [7]): 13.2%
CC(C)=CCC/C(C)=C/COC(=O)[C@H]1[C@H](c2ccc(O)cc2)[C@H](C(=O)OC/C=C(\C)CCC=C(C)C)[C@H]1c1ccc(O)cc1 | 33.9% | 80% | –
O=C(OCC(F)(F)C(F)F)[C@H]1[C@H](c2ccc(O)cc2)[C@H](C(=O)OCC(F)(F)C(F)F)[C@H]1c1ccc(O)cc1 | 15.7% | 100% | –
CCCOCCOC(=O)[C@H]1[C@H](c2ccc(O)cc2)[C@H](C(=O)OCCOCCC)[C@H]1c1ccc(O)cc1 | 23.6% | 100% | –
O=C(OCCF)[C@H]1[C@H](c2ccc(O)cc2)[C@H](C(=O)OCCF)[C@H]1c1ccc(O)cc1 | 13% | 100% | –
CCC[C@H]1CC[C@H]([C@H]2CC[C@H](OC(=O)[C@H]3[C@H](c4ccc(O)cc4)[C@H](C(=O)O[C@H]4CC[C@H]([C@H]5CC[C@H](CCC)CC5)CC4)[C@H]3c3ccc(O)cc3)CC2)CC1 | 0% | 100% | –
O=C(OC1CCC1)[C@H]1[C@H](c2ccc(O)cc2)[C@H](C(=O)OC2CCC2)[C@H]1c1ccc(O)cc1 | 55% | 62.6% | IC50 (RAW264.7 [3]): 32.3 µM; IC50 (RAW264.7 [4]): 19.8 µM
CCC[C@H]1CC[C@H]([C@H]2CC[C@@H](OC(=O)[C@H]3[C@H](c4ccc(O)cc4)[C@H](C(=O)O[C@H]4CC[C@@H]([C@H]5CC[C@H](CCC)CC5)CC4)[C@H]3c3ccc(O)cc3)CC2)CC1 | 0% | 100% | –
O=C(OC1CCCCC1)[C@H]1[C@H](c2ccc(O)cc2)[C@H](C(=O)OC2CCCCC2)[C@H]1c1ccc(O)cc1 | 76% | 67.8% | IC50 (RAW264.7 [3]): 33 µM; IC50 (RAW264.7 [4]): 16.4 µM
CC(C)(C)[Si](C)(C)Oc1ccc(/C=C/C(=O)O)cc1 | 0% | – | inhibition at 50 µM (RAW264.7 [5]): 2.2%; inhibition at 12.5 µM (RAW264.7 [6]): 0%; inhibition at 100 µM (RAW264.7 [7]): 6.5%
COCCOCCOC(=O)[C@H]1[C@H](c2ccc(O)cc2)[C@H](C(=O)OCCOCCOC)[C@H]1c1ccc(O)cc1 | 21.9% | 100% | –
O=C(OC1CCCCCC1)[C@H]1[C@H](c2ccc(O)cc2)[C@H](C(=O)OC2CCCCCC2)[C@H]1c1ccc(O)cc1 | 16% | 100% | –
O=C(O)[C@H]1[C@H](c2ccc(O)cc2)[C@H](C(=O)O)[C@H]1c1ccc(O)cc1 | 5.5% | 100% | –
C=C(C)C1CC=C(COC(=O)[C@H]2[C@H](c3ccc(O)cc3)[C@H](C(=O)OCC3=CCC(C(=C)C)CC3)[C@H]2c2ccc(O)cc2)CC1 (stereo not given in full) | 36.1% | 78% | –
CCC/C=C/COC(=O)[C@H]1[C@H](c2ccc(O)cc2)[C@H](C(=O)OC/C=C/CCC)[C@H]1c1ccc(O)cc1 | 72.3% | 40% | IC50 (RAW264.7 [3]): 19.3 µM; IC50 (RAW264.7 [4]): 17.6 µM
CC(C)[C@@H]1CC[C@@H](C)C[C@H]1OC(=O)[C@H]1[C@H](c2ccc(O)cc2)[C@H](C(=O)O[C@@H]2C[C@H](C)CC[C@H]2C(C)C)[C@H]1c1ccc(O)cc1 | 72% | 98% | IC50 (RAW264.7 [3]): 60.3 µM; IC50 (RAW264.7 [4]): 17.5 µM; Activity (RAW264.7 [8]): Non-toxic
O=C(OCCI)[C@H]1[C@H](c2ccc(O)cc2)[C@H](C(=O)OCCI)[C@H]1c1ccc(O)cc1 | 49.9% | 98% | –
